# Several values for one entry are separate records, joined by “and”; a condition that tells them apart may be missing. Equal entries are not always repeated. Entries after “also recorded” stand apart in the source; their conditions may differ.
# Columns and labels:
# MCF-7 cells [1] = experiment: Cytotoxicity assay (IC50 measurement, MTT); type: cell-based, human; settings: MCF-7, 96 hrs, read-out: IC50 values for different complexes in MCF-7 cells
# Protocol: Cytotoxicity assay (IC50 measurement): The cytotoxicity of Fe(III)-salen and its derivatives was determined by using MTT assay as described previously^42. In brief, approximately 10,000 MCF-7 cells were seeded into each well of a 96 well micro titer plate and incubated 24 hrs in presence of 150 μL DMEM. An additional 50 μL DMEM containing required amount of each metallo-salen to obtain 0.05 to 60 μM final concentration (in 200 μL final volume) in 8 replicate wells were added. Control wells were treated with equivalent amount of DMSO. After 96 hrs of incubation, 20 μL of MTT (5 mg/mL) was added into each well and cell viability was assayed by measuring the formazan absorption at 560 nm as described above. The absorbance (at 560 nm) values were plotted against concentration of metallo-salens to determine the IC50. The studies were repeated twice with 8 replicates each time.
# The concentration of the metal-complexes at which the conversion of MTT to formazan by viable cells is reduced by 50% compared to control cells is defined as the IC50. The percent of cell survival relative to the control cells were plotted as a function of concentration of the metallo-salen derivatives.
# MCF-7 cells [2] = experiment: Cell viability assay (MTT, DIC microscopy) at 20 μM; type: cell-based, human; parameters: key to Summary of cell viability activities (active/inactive): Y and N indicates active and inactive compounds respectively; Y and N indicates active and inactive compounds respectively; settings: for Summary of cell viability activities (active/inactive): MCF-7 cells, 20 μM, 24-96 hrs, MTT; for effect on cell viability (in words): MCF-7, 20 μM, up to 96 hrs
# Protocol: (A-F): MCF-7 cells were treated with 20 μM metallo-salens and incubated for varying time periods (24-96 hrs). Viable cells were quantified using MTT assay. The percent viable cells (relative to control, treated with equivalent amount of DMSO) were plotted as a function of time for each compound. This experiment was repeated twice with 8 replicate treatments each time. Bars indicates standard errors of mean (SEM). Curves 1-42 in FIGS. 2A-2F, represent the viability curves for compounds 1-42 respectively. (A′-F′) DIC images of the corresponding MCF-7 cells that were treated with DMSO (control panel), or with 20 μM Mn(III)- and Fe(III)-salen complexes for 72 hrs showing the visual effects on cellular morphology and growth/death.
# Cell viability assay: Approximately 10,000 MCF-7 cells were seeded into each well of a 96 well micro titer plate and incubated 24 hrs in presence of 150 μL DMEM. An additional 50 μL DMEM containing required amount of each metallo-salen to obtain 20 μM final concentrations (in 200 μL final volume) in 8 replicate wells were added. Control wells were treated with equivalent amount of dimethylsulfoxide (DMSO). The viability of the cells was assayed at 24, 48, 72 and 96 hrs post treatment by using both microscopic observation and MTT assay. For microscopic observation cells were stained with trypan blue for at least 10 minute and observed under Differential Interference Contrast (DIC) setting of a fluorescence microscope (Nikon Eclipse TE2000-U, Japan). The MTT assay was performed as described previously^42. In brief, 20 μL MTT (5 mg/ml in PBS) was added into each wells and incubated for 2 hrs under normal growth condition to allow the viable cell to convert MTT to formazan. Then the media was discarded and formazan crystals were dissolved by adding 100 μL of DMSO and incubating 2 hrs with continuous shaking. The absorbance of the lysates were directly measured at 560 nm using a micro plate reader (Fluostar-omega, BMG Labtech). The absorbance values (which are proportional to the viable cell) are plotted as a function of time. The studies were repeated twice with 8 replicates each time.
# The inventors studied the effect of Mn(III)-salen and Fe(III)-salen derivatives on the cell viability of cultured breast cancer cells MCF-7 in order to investigate the biochemical effects of the derivatives. The cells were incubated alone or with 20 μM of each of the metallo-salen derivatives separately (compounds 1-45) for varying time periods (0-96 hrs). The viable cells were quantified using MTT assay and the percent of cell survived (relative to the control untreated cells) were plotted against time (FIGS. 2A-2F).
Compound,IC50 (MCF-7 cells [1]),Summary of cell viability activities (active/inactive) (MCF-7 cells [2]),effect on cell viability (in words) (MCF-7 cells [2])
"5,5′-Dimethoxysalnaphen Fe(III) chloride [compound 42]",1.24 µM,Y (42),
"N.N.[Cl][Pt][Cl] [cis-platin, Cis-diaminodichloro-platinum(II), reference compound]",~20 µM,,
"CC(=O)[O-].[Mn+3].[O-]c1ccccc1C=NCCN=Cc1ccccc1[O-] [compound 1, Mn(III)-salen acetate]",20.4 µM and 20.5 µM,Y^b (1),
"CC(=O)[O-].[Mn+3].[O-]c1c(O)cccc1C=NCCN=Cc1cccc(O)c1[O-] [compound 2, 3,3′-Dihydroxysalen Mn(III) acetate]",37 µM,Y (2),
"CC(=O)[O-].[Mn+3].[O-]c1cc(O)ccc1C=NCCN=Cc1ccc(O)cc1[O-] [compound 3, 4,4′-Dihydroxysalen Mn(III) acetate]",,N^b (3),did not have any significant effect on cell viability; also recorded: not active
"CC(=O)[O-].[Mn+3].[O-]c1ccc(O)cc1C=NCCN=Cc1cc(O)ccc1[O-] [compound 4, 5,5′-Dihydroxysalen Mn(III) acetate]",43.1 µM,Y (4),effective in inducing cell death
"CC(=O)[O-].COc1cccc(C=NCCN=Cc2cccc(OC)c2[O-])c1[O-].[Mn+3] [compound 5, 3,3′-Dimethoxysalen Mn(III) acetate]",17.7 µM,Y (5),
"CC(=O)[O-].COc1ccc([O-])c(C=NCCN=Cc2cc(OC)ccc2[O-])c1.[Mn+3] [compound 7, 5,5′-Dimethoxysalen Mn(III) acetate]",16.1 µM,Y (7),
"CC(=O)[O-].[Mn+3].[O-]c1ccccc1C=Nc1ccccc1N=Cc1ccccc1[O-] [compound 8, Mn(III)-salphen acetate]",15 µM,Y (8),
"CC(=O)[O-].[Mn+3].[O-]c1cc(O)ccc1C=Nc1ccccc1N=Cc1ccc(O)cc1[O-] [compound 10, 4,4′-Dihydroxysalphen Mn(III) acetate]",,N (10),not active
"CC(=O)[O-].[Mn+3].[O-]c1ccc(O)cc1C=Nc1ccccc1N=Cc1cc(O)ccc1[O-] [compound 11, 5,5′-Dihydroxysalphen Mn(III) acetate]",45.6 µM,Y (11),effective in inducing cell death
"CC(=O)[O-].COc1cccc(C=Nc2ccccc2N=Cc2cccc(OC)c2[O-])c1[O-].[Mn+3] [compound 12, 3,3′-Dimethoxysalphen Mn(III) acetate]",22.2 µM,Y (12),
"CC(=O)[O-].COc1ccc(C=Nc2ccccc2N=Cc2ccc(OC)cc2[O-])c([O-])c1.[Mn+3] [compound 13, 4,4′-Dimethoxysalphen Mn(III) acetate]",15.5 µM and 15.6 µM,Y (13),most effective on inducing cell death
"CC(=O)[O-].COc1ccc([O-])c(C=Nc2ccccc2N=Cc2cc(OC)ccc2[O-])c1.[Mn+3] [compound 14, 5,5′-Dimethoxysalphen Mn(III) acetate]",55.9 µM,Y (14),
"CC(=O)[O-].[Mn+3].[O-]c1ccccc1C=Nc1cc2ccccc2cc1N=Cc1ccccc1[O-] [compound 15, Mn(III)-salnaphen acetate]",15.5 µM and 15.6 µM,Y (15),most effective on inducing cell death
"CC(=O)[O-].[Mn+3].[O-]c1ccc(O)cc1C=Nc1cc2ccccc2cc1N=Cc1cc(O)ccc1[O-] [compound 18, 5,5′-Dihydroxysalnaphen Mn(III) acetate]",,N (18),inactive
"[Cl-].[Fe+3].[O-]c1c(O)cccc1C=NCCN=Cc1cccc(O)c1[O-] [compound 23, 3,3′-Dihydroxysalen Fe(III) chloride]",,N (23),
"[Cl-].[Fe+3].[O-]c1cc(O)ccc1C=NCCN=Cc1ccc(O)cc1[O-] [compound 24, 4,4′-Dihydroxysalen Fe(III) chloride]",,N (24),
"[Cl-].[Fe+3].[O-]c1ccc(O)cc1C=NCCN=Cc1cc(O)ccc1[O-] [compound 25, 5,5′-Dihydroxysalen Fe(III) chloride]",,N (25),
"COc1cccc(C=NCCN=Cc2cccc(OC)c2[O-])c1[O-].[Cl-].[Fe+3] [compound 26, 3,3′-Dimethoxysalen Fe(III) chloride]",,N (26),did not show any significant effect on cell viability
"[Cl-].[Fe+3].[O-]c1cc(O)ccc1C=Nc1ccccc1N=Cc1ccc(O)cc1[O-] [compound 31, 4,4′-Dihydroxysalphen Fe(III) chloride]",,N (31),did not have any effects on cell viability
"[Cl-].[Fe+3].[O-]c1ccc(O)cc1C=Nc1ccccc1N=Cc1cc(O)ccc1[O-] [compound 32, 5,5′-Dihydroxysalphen Fe(III) chloride]",,N (32),did not have any effects on cell viability
"[Cl-].[Fe+3].[O-]c1cc(O)ccc1C=Nc1cc2ccccc2cc1N=Cc1ccc(O)cc1[O-] [compound 38, 4,4′-Dihydroxysalnaphen Fe(III) chloride]",,N (38),did not have any effects on cell viability
"[Cl-].[Fe+3].[O-]c1ccc(O)cc1C=Nc1cc2ccccc2cc1N=Cc1cc(O)ccc1[O-] [compound 39, 5,5′-Dihydroxysalnaphen Fe(III) chloride]",,N (39),did not have any effects on cell viability
"[Cl-].[Fe+3].[O-]c1ccccc1C=NCCCN=Cc1ccccc1[O-] [compound 43, Bis(salicylidene)propanediamine Fe(III) chloride]",,,almost no cell killing activity
"[Cl-].[Fe+3].[O-]c1ccccc1C=NCCCCN=Cc1ccccc1[O-] [compound 44, Bis(salicylidene)butanediamine Fe(III) chloride]",,,almost no cell killing activity
Fe(III)-carboxysalphen] chloride [compound 45],,,almost no cell killing activity

# From patent publication US8198322B2, “Apoptotic and anti-tumor activities of metallo-salens” (Board of Regents, The University of Texas System, priority 2008, dated 2012)
